Each molecule was assayed on MV4;11 cells (assay: In vitro MV4;11 cell proliferation inhibition (MTT method)). Conditions: Homo sapiens.
Assay type: cell-based
Text: The in vitro inhibitory effect of the synthesized compounds on cell proliferation was investigated.
The trade name of MTT was thiazole blue, which was a tetrazolium salt of a dye that could accept hydrogen atoms. […] Dimethyl sulfoxide could dissolve blue-purple complexes in cells, and its light absorption value could be measured at 490-550 nm wavelength with an enzyme-linked immunosorbent detector, which could indirectly reflect the number of cells. Within a certain range of the cell number, the amount of MTT crystals formed was proportional to the number of cells. The drug to be tested was successively diluted to different concentrations and added to a 96-well plate. The OD value was determined after the drug acted for a certain time. The size of the OD value could reflect the number of living cells, and its IC50 value was calculated with SPSS19.0.
Suspension of cells: Cells were […] by centrifugation and counted. A certain density of cell suspension was formulated with a complete culture medium, blown evenly, inoculated on a 96-well plate, 100 μL per well, and then cultured in a CO2 incubator.
An appropriate amount of the drug was added to a calculated amount of DMSO and dissolved. The resulting mixture was dispensed and stored at −20° C. The formulation concentration was 10 mM.
The stock solution of the compound having a concentration of 10 mM was diluted into different concentrations (8 concentrations) of solutions of the compound in DMSO (3-fold dilution, 20×final concentration). Each concentration of solutions (10 μL) of the compound in DMSO was respectively diluted with cell culture media (90 μL) to formulate working solutions (2×final concentration). Each concentration of working solutions (100 μL) of the compound was added to the 96-well plate inoculated with cells (1×final concentration, the highest final concentration is 1000 nM). The resulting plate continued to be cultured in a CO2 incubator.
The 96-well plate was taken out, and the density of cells was observed under a microscope. The test was performed with the MTT method.
MTT method: 20 μL of MTT was added to each well; the plate was cultured for about 4 hours in the incubator; the liquid in the well was discarded; 150 μL of DMSO was added into each well; the plate was placed in a shaker and shaken for 5-10 minutes, and the test was performed with a microplate reader at a wavelength of 550 nm. 7. Data analysis: IC50 value of the drug was calculated with SPSS19.0 statistical software.

| SMILES | IC50 |
| --- | --- |
| C#CC(=O)N[C@@H]1CCC[C@H](C(=O)Nc2cc(-c3ccc(F)cc3OC)c(F)cn2)C1 [Compound 65] | 6 nM |
| COc1cc(F)ccc1-c1cc(NC(=O)[C@H]2CCC[C@@H](NC(=O)[C@H](CC(C)C)NC(C)=O)C2)ncc1F [Compound 58] | 86 nM |
| COc1cc(F)ccc1-c1cc(NC(=O)[C@H]2CCC[C@@H](NC(=O)CS)C2)ncc1F [Compound 81] | 67 nM |
| C=CC(=O)N[C@@H]1CCC[C@H](C(=O)Nc2cc(-c3ccc(F)cc3OC)c(F)cn2)C1 [Compound 64] | 9 nM |
| COc1cc(F)ccc1-c1cc(NC(=O)[C@H]2CCC[C@@H](NC(=O)[C@@H](CC(C)C)NC(C)=O)C2)ncc1F [Compound 59] | 6 nM |
| CC(=O)N[C@@H]1CCC[C@H](C(=O)Nc2cc(-c3cccc4[nH]ccc34)c(F)cn2)C1 [Compound 22] | 36 nM |
| COc1cc(F)ccc1-c1cc(NC(=O)[C@H]2CCC[C@@H](NC(=O)C(F)(F)F)C2)ncc1F [Compound 42] | 17 nM |
| COc1cc(F)ccc1-c1cc(NC(=O)[C@H]2CCC[C@@H](NC(=O)C3COC3)C2)ncc1F [Compound 52] | 8 nM |
| COc1cc(F)ccc1-c1cc(NC(=O)[C@H]2CCC[C@@H](NC(=O)C3(C)CC3)C2)ncc1F [Compound 53] | 10 nM |
| COc1cc(O)ccc1-c1cc(NC(=O)[C@H]2CCC[C@@H](NC(C)=O)C2)ncc1F [Compound 15] | 9 nM |
| COc1cc(F)ccc1-c1cc(NC(=O)[C@H]2CCC[C@@H](NC(=O)[C@H](C)O)C2)ncc1F [Compound 48] | 26 nM |
| COc1cc(F)ccc1-c1cc(NC(=O)[C@H]2CCC[C@@H](NC(=O)C3(C(F)(F)F)CC3)C2)ncc1F [Compound 55] | 14 nM |
| COc1cc(F)ccc1-c1cc(NC(=O)[C@H]2CCC[C@@H](NC(=O)CC3CC3)C2)ncc1F [Compound 61] | 48 nM |
| COc1cc(F)ccc1-c1cc(NC(=O)[C@H]2CCC[C@@H](NC(=O)C3CC3)C2)ncc1F [Compound 62] | 6 nM |
| COc1cc(F)ccc1-c1cc(NC(=O)[C@H]2CCC[C@@H](Nc3nccs3)C2)ncc1F [Compound 69] | 28 nM |
| COc1cc(F)ccc1-c1cc(NC(=O)[C@H]2CCC[C@@H](NC(=O)C3CCN(C)CC3)C2)ncc1F [Compound 60] | 12 nM |
| COc1cc(F)ccc1-c1cc(NC(=O)C2CCCC(NC(C)=O)C2)ncc1F (stereo not drawn) [Compound 3] | 120 nM |
| COc1cc(F)ccc1-c1cc(NC(=O)[C@H]2CCC[C@@H](NC(=O)C(C)(C)O)C2)ncc1F [Compound 83] | 14 nM |
| COc1cc(F)ccc1-c1cc(NC(=O)[C@H]2CCC[C@@H](NC(C)=O)C2)ncc1Cl [Compound 71] | 16 nM |
| COc1cc(F)ccc1-c1cc(NC(=O)[C@H]2CCC[C@@H](NC(=O)C3(C#N)CCC3)C2)ncc1F [Compound 34] | 21 nM |
| COc1cc(F)ccc1-c1cc(NC(=O)[C@H]2CCC[C@@H](NC(=O)[C@@H](C)O)C2)ncc1F [Compound 49] | 72 nM |
| COc1c(-c2cc(NC(=O)[C@H]3CCC[C@@H](NC(C)=O)C3)ncc2F)ccc(F)c1F [Compound 6] | 179 nM |
| CC(=O)N[C@@H]1CCC[C@H](C(=O)Nc2cc(-c3ccnc4c3ccn4C)c(F)cn2)C1 [Compound 24] | 119 nM |
| COc1cc(F)ccc1-c1cc(NC(=O)[C@H]2CCC[C@@H](NC(=O)Nc3cc(C)no3)C2)ncc1F [Compound 41] | 45 nM |

| SMILES | IC50 |
| --- | --- |
| COC(=O)N[C@@H]1CCC[C@H](C(=O)Nc2cc(-c3ccc(F)cc3OC)c(F)cn2)C1 [Compound 36] | 44 nM |
| COc1cc(F)ccc1-c1cc(NC(=O)[C@H]2CCC[C@@H](NC(=O)CCO)C2)ncc1F [Compound 50] | 37 nM |
| COc1cc(F)ccc1-c1cc(NC(=O)[C@H]2CCC[C@@H](NC(=O)CNC(C)=O)C2)ncc1F [Compound 57] | 100 nM |
| COc1cc(F)c(F)cc1-c1cc(NC(=O)[C@H]2CCC[C@@H](NS(C)(=O)=O)C2)ncc1F [Compound 26] | 89 nM |
| COc1cc(F)ccc1-c1cc(NC(=O)[C@H]2CCC[C@@H](NC(=O)CC#N)C2)ncc1F [Compound 32] | 11 nM |
| COc1cc(F)ccc1-c1cc(NC(=O)[C@H]2CCC[C@@H](NC(=O)C3(O)CC3)C2)ncc1F [Compound 51] | 13 nM |
| COc1cc(F)ccc1-c1cc(NC(=O)[C@H]2CCC[C@@H](NC(=O)COC(C)=O)C2)ncc1F [Compound 47] | 13 nM |
| COc1cc(F)ccc1-c1cc(NC(=O)[C@H]2CCC[C@@H](NC(=O)C3(C#N)CN(C)C3)C2)ncc1F [Compound 77] | 21 nM |
| CNC(=O)N[C@@H]1CCC[C@H](C(=O)Nc2cc(-c3ccc(F)cc3OC)c(F)cn2)C1 [Compound 37] | 52 nM |
| CC(=O)N[C@@H]1CCC[C@H](C(=O)Nc2cc(-c3ccnc4[nH]ccc34)c(F)cn2)C1 [Compound 23] | 23 nM |
| CC(=O)N[C@@H]1CCC[C@H](C(=O)Nc2cc(-c3ccc(F)cc3OC(C)C)c(F)cn2)C1 [Compound 8] | 45 nM |
| COc1cc(F)ccc1-c1cc(NC(=O)[C@H]2CCC[C@@H](NC(=O)c3ccccn3)C2)ncc1F [Compound 43] | 22 nM |
| COc1cc(F)ccc1-c1cc(NC(=O)[C@H]2CCC[C@@H](NC(=O)CN(C)C)C2)ncc1F [Compound 40] | 8 nM |
| COc1cc(F)ccc1-c1cc(NC(=O)[C@H]2CCC[C@@H](NC(=O)/C=C/CN(C)C)C2)ncc1F [Compound 66] | 34 nM |
| CC(=O)N[C@@H]1CCC[C@H](C(=O)Nc2cc(-c3ccc(F)nc3F)c(F)cn2)C1 [Compound 20] | 67 nM |
| COc1cc(F)ccc1-c1cc(NC(=O)[C@H]2CCC[C@@H](NC(=O)CN)C2)ncc1F [Compound 56] | 20 nM |
| COc1cc(F)ccc1-c1cc(NC(=O)[C@H]2CCC[C@@H](NC(=O)C3(C#N)CCN(C)CC3)C2)ncc1F [Compound 82] | 21 nM |
| CCOCC(=O)N[C@@H]1CCC[C@H](C(=O)Nc2cc(-c3ccc(F)cc3OC)c(F)cn2)C1 [Compound 46] | 17 nM |
| COc1cc(F)ccc1-c1cc(NC(=O)[C@H]2CCC[C@@H](NC(=O)C3(C#N)CCOCC3)C2)ncc1F [Compound 35] | 32 nM |
| COc1cc(F)ccc1-c1cc(NC(=O)[C@H]2CCC[C@@H](NC(=O)C3(F)CC3)C2)ncc1F [Compound 54] | 12 nM |
| COc1cc(F)ccc1-c1cc(NC(=O)N2CCC[C@@H](NC(C)=O)C2)ncc1F [Compound 70] | 259 nM |
| COc1cc(F)ccc1-c1cc(NC(=O)[C@H]2CCC[C@@H](NC(=O)C(=O)C3CC3)C2)ncc1F [Compound 63] | 96 nM |
| COc1cc(F)ccc1-c1cc(NC(=O)[C@H]2CCC[C@@H](NC(=O)N(C)C)C2)ncc1F [Compound 38] | 10 nM |

These molecules were tested against hERG channel (Homo sapiens (Human), UniProt Q12809) (assay: In vitro hERG inhibitory activity, whole-cell patch-clamp on CHO-K1 cell line stably expressing the hERG channel). Conditions: not given.
Sequence of hERG channel (Q12809 whole entry): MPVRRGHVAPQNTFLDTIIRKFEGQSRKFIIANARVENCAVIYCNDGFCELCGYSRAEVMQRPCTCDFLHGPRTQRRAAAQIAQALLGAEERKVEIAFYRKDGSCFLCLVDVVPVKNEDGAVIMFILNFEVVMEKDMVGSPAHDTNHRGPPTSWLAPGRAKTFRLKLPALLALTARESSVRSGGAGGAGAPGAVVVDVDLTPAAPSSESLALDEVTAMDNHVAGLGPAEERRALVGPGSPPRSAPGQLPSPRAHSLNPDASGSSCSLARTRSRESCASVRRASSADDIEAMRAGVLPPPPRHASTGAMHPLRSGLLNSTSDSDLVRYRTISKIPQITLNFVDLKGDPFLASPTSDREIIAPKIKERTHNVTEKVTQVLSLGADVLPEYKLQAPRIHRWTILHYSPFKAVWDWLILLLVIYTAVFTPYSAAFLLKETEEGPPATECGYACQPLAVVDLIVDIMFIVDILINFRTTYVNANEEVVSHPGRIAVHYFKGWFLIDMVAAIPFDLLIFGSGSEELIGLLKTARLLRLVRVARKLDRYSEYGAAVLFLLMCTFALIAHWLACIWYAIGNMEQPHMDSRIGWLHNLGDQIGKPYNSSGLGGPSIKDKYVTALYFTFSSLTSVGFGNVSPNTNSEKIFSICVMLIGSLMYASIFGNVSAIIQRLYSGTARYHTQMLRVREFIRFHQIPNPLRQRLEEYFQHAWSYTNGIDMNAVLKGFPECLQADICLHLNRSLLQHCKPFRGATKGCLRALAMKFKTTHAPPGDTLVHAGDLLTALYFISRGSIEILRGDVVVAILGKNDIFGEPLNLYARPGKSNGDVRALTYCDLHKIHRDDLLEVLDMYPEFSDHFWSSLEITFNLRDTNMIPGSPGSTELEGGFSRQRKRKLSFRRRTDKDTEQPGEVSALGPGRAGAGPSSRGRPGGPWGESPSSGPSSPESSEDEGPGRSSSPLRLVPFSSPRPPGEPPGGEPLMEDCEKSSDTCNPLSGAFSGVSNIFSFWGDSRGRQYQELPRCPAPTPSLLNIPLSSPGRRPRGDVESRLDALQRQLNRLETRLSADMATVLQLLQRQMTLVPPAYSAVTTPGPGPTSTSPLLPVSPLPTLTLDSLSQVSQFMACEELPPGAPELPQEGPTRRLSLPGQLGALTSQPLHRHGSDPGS
Text: Rapid delayed rectifier current (IKr) was mainly mediated by the hERG ion channel and involved in human cardiomyocyte repolarization. Inhibition of IKr was the leading cause of the clinical QT interval prolongation syndrome, even acute cardiac dysrhythmia, and even sudden death. By utilizing a whole-cell patch-clamp technology, the blocking effect of a compound on the hERG channel was detected on a CHO-K1 cell line stably expressing the hERG channel, and the half inhibition concentration IC50 of the compound was determined. It was used as a part of the comprehensive cardiac safety assessment, and it was initially evaluated in the safety in vitro screen for cardiotoxicity.
This assay included the following aspects: • The hERG current was recorded on the CHO-K1 cell line stably expressing the hERG channel by utilizing the manual patch-clamp technology; • The inhibition rate at each concentration was calculated according to the hERG tail current; • The measurement was performed at 5 concentrations for each compound to calculate the IC50 value; • 3 cells were tested at each concentration; • One positive control drug was provided.
The hERG current was recorded by utilizing a whole-cell patch-clamp technology. The cell suspension was added to a dish, and the dish was placed on the object stage of an upright microscope. After adhesion of the cells, perfusion was performed with an extracellular fluid at a flow rate of […]. A glass microelectrode was pulled with a microelectrode puller via a two-step process and the pipette rip resistance was between 2-5 MΩ. After the whole-cell record was set up, the clamp potential was held at −80 mV. The cells were depolarized to +60 mV by applying a voltage stimulus and then repolarized to −50 mV to elicit the hERG tail current. All recordation was conducted after the current became stable. The extracellular perfusion administration was started from the lowest concentration, staying for 5-10 min at each concentration until the current was stable, and then conducted with the next concentration.

| SMILES | IC50 |
| --- | --- |
| COc1cc(F)ccc1-c1cc(NC(=O)[C@H]2CCC[C@@H](NC(=O)[C@H](C)O)C2)ncc1F [Compound 48] | > 30000 nM |
| COc1cc(F)ccc1-c1cc(NC(=O)C2CCCC(NC(C)=O)C2)ncc1F (stereo not drawn) [Compound 3] | > 30000 nM |
| COC(=O)N[C@@H]1CCC[C@H](C(=O)Nc2cc(-c3ccc(F)cc3OC)c(F)cn2)C1 [Compound 36] | > 30000 nM |
| COc1cc(F)ccc1-c1cc(NC(=O)[C@H]2CCC[C@@H](NC(=O)CC#N)C2)ncc1F [Compound 32] | > 30000 nM |
| CNC(=O)N[C@@H]1CCC[C@H](C(=O)Nc2cc(-c3ccc(F)cc3OC)c(F)cn2)C1 [Compound 37] | > 30000 nM |
| CC(=O)N[C@@H]1CCC[C@H](C(=O)Nc2cc(-c3ccc(F)cc3OC(C)C)c(F)cn2)C1 [Compound 8] | > 30000 nM |
| COc1cc(F)ccc1-c1cc(NC(=O)[C@H]2CCC[C@@H](NC(=O)c3ccccn3)C2)ncc1F [Compound 43] | > 30000 nM |
